Reference: patent publication EP0326331B1, “Substituted quinolines and cinnolines” (Dow AgroSciences LLC, priority 1988, dated 1989)
Like-named read-outs stand apart in the source and are kept apart here.

Legend:
Type in all cases: in vivo
[1] = system: Pyricularia oryzae (rice blast); test: whole plant or invertebrate; settings: for activity against rice blast: summary statement in the description
Pyrenophora teres = test: Field tests against plant pathogens; settings: field test, crop barley
From the text: (§1) Selected compounds were field tested against a variety of plant pathogens. […]

[2] = system: melon aphids (Aphis gossypii Glover); test: Mite/insect screen, MA; settings: percent mortality
Outline: (§2)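 First, each compound was dissolved in an emulsifier-containing acetone/alcohol mixture and diluted with water. Next, leaves were sprayed until runoff and left to dry for an hour. For southern armyworm, two excised uninfested leaves went into a Petri dish with larvae; percent mortality followed standard exposure periods.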

[3] = system: Septoria tritici (leaf blotch); test: Test 1 greenhouse foliar spray screen, leaf blotch on wheat; settings: for LEAF BLOT: disease control rating, foliar spray on wheat, 400 ppm (+++ at 100 ppm); for pest or weed control at 400 ppm: Zymoseptoria tritici, Test 1, foliar spray on wheat, disease control rating at 400 ppm / 100 ppm, read-out: LEAF BLOT
Phytophthora infestans = settings: field test
[4] = system: southern armyworm (Spodopetra eridania Cramer); test: Mite/insect screen, SAW; settings: percent mortality
Outline: as §2

[5] = system: Botrytis cinerea (gray mold); test: Test 1 greenhouse foliar spray screen, gray mold on grape berries; settings: for GRAY MOLD: disease control rating, spray on grape berries, 400 ppm (+++ at 100 ppm); for pest or weed control at 400 ppm: Botrytis cinerea, foliar, Test 1, spray on grape berries, disease control rating at 400 ppm / 100 ppm
[6] = system: Erysiphe graminis tritici (powdery mildew); test: Test 1 greenhouse foliar spray screen, powdery mildew on wheat
corn rootworm = test: Mite/insect screen, CRW; settings: percent mortality, read-out: CRW RESULTS %
Outline: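 Stock in acetone:alcohol 1:1 + TOXIMUL R 23 g/L + TOXIMUL S 13 g/L; diluted with water to indicated concentrations; mortality (%) after standard exposure.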

[7] = system: Pseudoperonospora cubensis (downy mildew); test: Test 1 greenhouse foliar spray screen, downy mildew on squash
[8] = system: Twospotted spider mites (Tetranychus urticae Koch); test: Mite/insect screen, SM
Outline: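 Read-out: percent mortality after standard exposure periods. Test solutions were water dilutions of compound dissolved in acetone/alcohol (50:50) with emulsifier blends; leaves were sprayed to runoff on both surfaces and air-dried for one hour before exposure.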

[9] = system: Puccinia recondita tritici (leaf rust); test: Test 1 greenhouse foliar spray screen, leaf rust on wheat
[10] = system: Venturia inaequalis (apple scab); test: Test 1 greenhouse foliar spray screen, apple scab on apple seedling; settings: for APPL SCAB: disease control rating, foliar spray on apple seedling, 400 ppm (+++ at 100 ppm); for pest or weed control at 400 ppm: Venturia inaequalis, Test 1, foliar spray on apple seedling, disease control rating at 400 ppm / 100 ppm, read-out: APPL SCAB
[11] = system: Pseudocercosporella herpotrichoides; test: Field tests against plant pathogens; settings: field test, crop wheat
From the text: as §1

Sphaerotheca fuliginea = test: Field tests against plant pathogens; settings: field test, crop cucumber
From the text: as §1

Rhynchosporium secalis = test: Field tests against plant pathogens; settings: field test, crop barley
From the text: as §1

[12] = system: Erysiphe graminis tritici; test: Field tests against plant pathogens; settings: field test, crop wheat
From the text: as §1

[13] = system: Cercospora beticola (leaf spot); test: Test 1 greenhouse foliar spray screen, leaf spot on sugar beet; settings: for LEAF SPOT: disease control rating, foliar spray on sugar beet, 400 ppm (+++ at 100 ppm); for pest or weed control at 400 ppm: Cercospora beticola, Test 1, foliar spray on sugar beet, disease control rating at 400 ppm / 100 ppm
Plasmopara viticola = test: Field tests against plant pathogens; settings: field test, crop grape
From the text: as §1

plant pathogens = test: Fungicidal efficacy against a broad spectrum of plant pathogens (summary of screen); settings: summary statement in the description
[14] = disease control rating, foliar spray on rice, 400 ppm (+++ at 100 ppm)
[15] = Aphis gossypii, SAW, SM & MA RATE 200 PPM, read-out: MA RESULTS %
[16] = Spodoptera eridania, SAW, SM & MA RATE 200 PPM, read-out: SAW RESULTS %
[17] = disease control rating, foliar spray on wheat, 400 ppm (+++ at 100 ppm)
[18] = disease control rating, foliar spray on squash, 400 ppm (+++ at 100 ppm)
[19] = Tetranychus urticae, percent mortality, SAW, SM & MA RATE 200 PPM, read-out: SM RESULTS %
[20] = Aphis gossypii, foliar, rate 200 ppm, foliar spray on squash, read-out: MA RESULTS %
[21] = Spodoptera eridania, foliar, rate 200 ppm, foliar spray on squash, read-out: SAW RESULTS %
[22] = summary statement in the description
[23] = Tetranychus urticae, foliar, percent mortality, rate 200 ppm, foliar spray on squash, read-out: SM RESULTS %
[24] = rate 400 ppm, foliar spray on squash
[25] = Test 1, foliar spray on wheat, disease control rating at 400 ppm / 100 ppm

| SMILES | RICE BLAST [1, 14] | pathogens against which compounds of the invention showed activity (Pyrenophora teres) | mortality at 200 ppm [2, 15] | LEAF BLOT [3] | mortality at 200 ppm [4, 16] | GRAY MOLD [5] | POWD MDEW [6, 17] | mortality at 12 ppm (corn rootworm; CRW RATE 12.00 PPM) | DOWN MDEW [7, 18] | mortality at 200 ppm [8, 19] | LEAF RUST [9, 17] | APPL SCAB [10] | activity against rice blast [1] | pathogens against which compounds of the invention showed activity [11] | pathogens against which compounds of the invention showed activity (Sphaerotheca fuliginea) | pathogens against which compounds of the invention showed activity (Rhynchosporium secalis) | pathogens against which compounds of the invention showed activity [12] | LEAF SPOT [13] | mortality at 200 ppm [4, 21] | mortality at 12 ppm (corn rootworm; CRW rate 12.00 ppm) | further results |
| --- | --- | --- | --- | --- | --- | --- | --- | --- | --- | --- | --- | --- | --- | --- | --- | --- | --- | --- | --- | --- | --- |
| c1ccc(CCNc2ccnc3ccccc23)cc1 [Example 2, N-(2-phenylethyl)-4-quinolinamine] | - (0-19% control at 400 ppm) | Pyrenophora teres | 0% | - (0-19% control at 400 ppm) | 0% | - (0-19% control at 400 ppm) | - (0-19% control at 400 ppm) | 0% | +++ (90-100% control at 100 ppm) | 0% | - (0-19% control at 400 ppm) | - (0-19% control at 400 ppm) |  |  |  |  |  |  |  |  | pathogens against which compounds of the invention showed activity (Phytophthora infestans; crop potato): Phytophthora infestans; pathogens against which compounds of the invention showed activity (Phytophthora infestans; crop tomato): Phytophthora infestans |
| CC(=O)N(CCc1ccc(Cl)cc1)c1ccnc2c(F)cccc12 [Example 10, N-[2-(4-chlorophenyl)ethyl]-N-(8-fluoro-4-quinolinyl)acetamide] | +++ (90-100% control at 100 ppm) | Pyrenophora teres | 0% | +++ (90-100% control at 100 ppm) | 0% | - (0-19% control at 400 ppm) | ++ (90-100% control at 400 ppm) | 0% | ++ (90-100% control at 400 ppm) | 0% | +++ (90-100% control at 100 ppm) | - (0-19% control at 400 ppm) | particularly excellent activity | Pseudocercosporella herpotrichoides | Sphaerotheca fuliginea | Rhynchosporium secalis | Erysiphe graminis tritici | +++ (90-100% control at 100 ppm) |  |  | mortality at 400 ppm ([2]; Aphis gossypii, SAW, SM & MA RATE 400 PPM, read-out: MA RESULTS %): 0%; mortality at 400 ppm ([4]; Spodoptera eridania, SAW, SM & MA RATE 400 PPM, read-out: SAW RESULTS %): 0%; mortality at 24 ppm (corn rootworm; CRW RATE 24.00 PPM): 0%; mortality at 400 ppm ([8]; Tetranychus urticae, percent mortality, SAW, SM & MA RATE 400 PPM, read-out: SM RESULTS %): 0% |
| Fc1cccc2c(NCCc3cccs3)ccnc12 [Example 173, 8-fluoro-N-[2-(2-thienyl)ethyl]-4-quinolinamine] | + (20-89% control at 400 ppm) |  |  | + (20-89% control at 400 ppm) |  | - (0-19% control at 400 ppm) | + (20-89% control at 400 ppm) |  | +++ (90-100% control at 100 ppm) |  | ++ (90-100% control at 400 ppm) | - (0-19% control at 400 ppm) |  |  |  |  |  | +++ (90-100% control at 100 ppm) | 0% | 0% | pathogens against which compounds of the invention showed activity (Plasmopara viticola): Plasmopara viticola; mortality at 200 ppm [2, 20]: 0%; activity against downy mildew [7, 22]: particularly excellent activity; mortality at 200 ppm [8, 23]: 0% |
| Fc1cccc2c(OCCc3ccc(-c4ccccc4)cc3)ccnc12 [Example 200] |  | Pyrenophora teres |  |  |  |  |  |  |  |  |  |  | particularly excellent activity | Pseudocercosporella herpotrichoides | Sphaerotheca fuliginea | Rhynchosporium secalis | Erysiphe graminis tritici |  | 0% | 0% | RICE BLAST ([1]; Test 1, foliar spray on rice, disease control rating at 400 ppm / 100 ppm): +++ (90-100% control at 100 ppm); MA RESULTS % ([2]; rate 200 ppm, foliar spray on squash): 100%; MA RESULTS % [2, 24]: 100%; pest or weed control at 400 ppm [13]: 20 to 89%; pest or weed control at 400 ppm [3]: 90 to 100%; SAW RESULTS % [4, 24]: 50%; pest or weed control at 400 ppm [5]: 0 to 19%; POWD MDEW [6, 25]: +++ (90-100% control at 100 ppm); mortality at 24 ppm (corn rootworm; CRW rate 24.00 ppm): 0%; DOWN MDEW ([7]; Test 1, foliar spray on squash, disease control rating at 400 ppm / 100 ppm): + (20-89% control at 400 ppm); SM RESULTS % ([8]; percent mortality, rate 200 ppm, foliar spray on squash): 100%; SM RESULTS % ([8]; percent mortality, rate 400 ppm, foliar spray on squash): 100%; activity as miticides [8, 22]: particularly excellent activity; LEAF RUST [9, 25]: +++ (90-100% control at 100 ppm); pest or weed control at 400 ppm [10]: 20 to 89% |
| Fc1cccc2c(OCCc3ccccc3)ccnc12 [Example 219, 8-fluoro-4-(2-phenylethoxy)quinoline] |  | Pyrenophora teres |  |  |  |  |  |  |  |  |  |  |  | Pseudocercosporella herpotrichoides | Sphaerotheca fuliginea | Rhynchosporium secalis | Erysiphe graminis tritici |  | 0% | 0% | pest or weed control at 400 ppm ([1]; Pyricularia oryzae, foliar, read-out: RICE BLAST, Test 1, foliar spray on rice, disease control rating at 400 ppm / 100 ppm): 90 to 100%; mortality at 200 ppm [2, 20]: 0%; pest or weed control at 400 ppm [13]: 20 to 89%; pest or weed control at 400 ppm [3]: 20 to 89%; activity against a broad spectrum of plant pathogens (plant pathogens): particularly excellent activity; pest or weed control at 400 ppm [5]: 0 to 19%; pest or weed control at 400 ppm ([6]; Blumeria graminis, foliar, Test 1, foliar spray on wheat, disease control rating at 400 ppm / 100 ppm, read-out: POWD MDEW): 90 to 100%; pest or weed control at 400 ppm ([7]; Pseudoperonospora cubensis, foliar, Test 1, foliar spray on squash, disease control rating at 400 ppm / 100 ppm, read-out: DOWN MDEW): 90 to 100%; mortality at 200 ppm [8, 23]: 0%; pest or weed control at 400 ppm ([9]; Puccinia recondita, foliar, Test 1, foliar spray on wheat, disease control rating at 400 ppm / 100 ppm): 90 to 100%; pest or weed control at 400 ppm [10]: 20 to 89% |
